Columns and labels:
Experiment in all cases: relative viability (nuclei count vs DMSO), 5 days (fraction); higher = more cells survive
[1] = system: LC-2-ad
Outline: (§1)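 Values are medians from duplicate plates. Each reflects relative viability, defined as the nuclei count of treated wells over that of vehicle wells. Lung cancer cell lines in 1536-well plates were pin-tool dosed one day after seeding with one drug alone or with a fixed anchor-drug dose plus five library-drug doses (not always all listed) in √10 steps, then fixed, stained and imaged at 4× after 5 days.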

[2] = system: NCI-H441
Outline: as §1

[3] = system: NCI-H596
Outline: as §1

[4] = system: NCI-H1915
Outline: as §1

[5] = system: CAL-12T
Outline: as §1

[6] = system: NCI-H520
Outline: as §1

[7] = system: NCI-H727
Outline: as §1

[8] = system: NCI-H2087
Outline: as §1

[9] = system: H3255
Outline: as §1

[10] = system: NCI-H1651
Outline: as §1

[11] = system: A-427
Outline: as §1

[12] = system: ABC-1
Outline: as §1

[13] = system: NCI-H650
Outline: as §1

[14] = system: BEN
Outline: as §1

[15] = system: NCI-H1650
Outline: as §1

[16] = system: NCI-H1944
Outline: as §1

[17] = system: NCI-H661
Outline: as §1

[18] = system: LCLC-97TM1
Outline: as §1

[19] = system: NCI-H460
Outline: as §1

[20] = system: NCI-H2023
Outline: as §1

[21] = system: PC-3 [JPC-3]
Outline: as §1

[22] = system: 201T
Outline: as §1

## COc1nc(C)cnc1NS(=O)(=O)c1cccnc1-c1ccc(-c2nnco2)cc1 [Zibotentan] + O=C(CCCCCCC(=O)Nc1ccccc1)NO [Vorinostat] (partner 1 µM)
[1]; first compound 0.08 µM
  relative viability: 0.751
[1]; first compound 0.253 µM
  relative viability: 0.723
[1]; first compound 0.8 µM
  relative viability: 0.739
[1]; first compound 2.53 µM
  relative viability: 0.731
[2]; first compound 0.08 µM
  relative viability: 0.78
[2]; first compound 0.253 µM
  relative viability: 0.721
[2]; first compound 0.8 µM
  relative viability: 0.783
[2]; first compound 2.53 µM
  relative viability: 0.794
[3]; first compound 0.08 µM
  relative viability: 0.568
[3]; first compound 0.253 µM
  relative viability: 0.533
[3]; first compound 0.8 µM
  relative viability: 0.591
[3]; first compound 2.53 µM
  relative viability: 0.713
[4]; first compound 0.08 µM
  relative viability: 0.679
[4]; first compound 0.253 µM
  relative viability: 0.53
[4]; first compound 0.8 µM
  relative viability: 0.548
[4]; first compound 2.53 µM
  relative viability: 0.572
[5]; first compound 0.08 µM
  relative viability: 0.887
[5]; first compound 0.253 µM
  relative viability: 0.543
[5]; first compound 0.8 µM
  relative viability: 0.742
[5]; first compound 2.53 µM
  relative viability: 0.714
[6]; first compound 0.08 µM
  relative viability: 0.778
[6]; first compound 0.253 µM
  relative viability: 0.799
[6]; first compound 0.8 µM
  relative viability: 0.794
[6]; first compound 2.53 µM
  relative viability: 0.711
[7]; first compound 0.08 µM
  relative viability: 1.19
[7]; first compound 0.253 µM
  relative viability: 1.24
[7]; first compound 0.8 µM
  relative viability: 1.07
[7]; first compound 2.53 µM
  relative viability: 1.19
[8]; first compound 0.08 µM
  relative viability: 0.719
[8]; first compound 0.253 µM
  relative viability: 0.679
[8]; first compound 0.8 µM
  relative viability: 0.752
[8]; first compound 2.53 µM
  relative viability: 0.732
[9]; first compound 0.08 µM
  relative viability: 0.926
[9]; first compound 0.253 µM
  relative viability: 0.785
[9]; first compound 0.8 µM
  relative viability: 0.877
[9]; first compound 2.53 µM
  relative viability: 0.778
[10]; first compound 0.08 µM
  relative viability: 0.543
[10]; first compound 0.253 µM
  relative viability: 0.492
[10]; first compound 0.8 µM
  relative viability: 0.559
[10]; first compound 2.53 µM
  relative viability: 0.461
[11]; first compound 0.08 µM
  relative viability: 0.921
[11]; first compound 0.253 µM
  relative viability: 0.848
[11]; first compound 0.8 µM
  relative viability: 0.905
[11]; first compound 2.53 µM
  relative viability: 0.928
[12]; first compound 0.08 µM
  relative viability: 1.01
[12]; first compound 0.253 µM
  relative viability: 0.77
[12]; first compound 0.8 µM
  relative viability: 1.05
[12]; first compound 2.53 µM
  relative viability: 1.53
[13]; first compound 0.08 µM
  relative viability: 0.53
[13]; first compound 0.253 µM
  relative viability: 0.403
[13]; first compound 0.8 µM
  relative viability: 0.625
[13]; first compound 2.53 µM
  relative viability: 0.536
[14]; first compound 0.08 µM
  relative viability: 0.571
[14]; first compound 0.253 µM
  relative viability: 0.556
[14]; first compound 0.8 µM
  relative viability: 0.568
[14]; first compound 2.53 µM
  relative viability: 0.517
[15]; first compound 0.08 µM
  relative viability: 0.528
[15]; first compound 0.8 µM
  relative viability: 0.61
[15]; first compound 2.53 µM
  relative viability: 0.646
[16]; first compound 0.08 µM
  relative viability: 0.674
[16]; first compound 0.253 µM
  relative viability: 0.533
[16]; first compound 0.8 µM
  relative viability: 0.508
[16]; first compound 2.53 µM
  relative viability: 0.631
[17]; first compound 0.08 µM
  relative viability: 0.823
[17]; first compound 0.253 µM
  relative viability: 0.766
[17]; first compound 0.8 µM
  relative viability: 0.827
[17]; first compound 2.53 µM
  relative viability: 0.844
[18]; first compound 0.08 µM
  relative viability: 0.822
[18]; first compound 0.253 µM
  relative viability: 0.831
[18]; first compound 0.8 µM
  relative viability: 0.697
[18]; first compound 2.53 µM
  relative viability: 0.755
[19]; first compound 0.08 µM
  relative viability: 0.673
[19]; first compound 0.253 µM
  relative viability: 0.541
[19]; first compound 0.8 µM
  relative viability: 0.739
[19]; first compound 2.53 µM
  relative viability: 0.719
[20]; first compound 0.08 µM
  relative viability: 0.849
[20]; first compound 0.8 µM
  relative viability: 0.562
[20]; first compound 2.53 µM
  relative viability: 0.846
[21]; first compound 0.08 µM
  relative viability: 1.19
[21]; first compound 0.253 µM
  relative viability: 0.561
[21]; first compound 0.8 µM
  relative viability: 0.72
[21]; first compound 2.53 µM
  relative viability: 0.867
[22]; first compound 0.08 µM
  relative viability: 0.96
[22]; first compound 0.253 µM
  relative viability: 0.972
[22]; first compound 0.8 µM
  relative viability: 0.952
[22]; first compound 2.53 µM
  relative viability: 1

From the supplement of paper PMC10307832
